Data: publication PMC11025159 (Journal of Translational Medicine, 2024)
“And” between values parts separate entries of the source, which are not always exact repeats. Equal entries are not always repeated. Structures can show the parent of a compound that is named as a salt.

Experiments:
[1] = tested on: athymic nude mice (NU/J Foxn1nu); assay: Hair growth in athymic nude mice (topical, 28 days); assay type: in vivo; details: for H&E skin histopathology finding / hair follicle grade: day 28
Method: The groups are as follows: Group 1-Control (untreated), Group 2-Vehicle control, Group 3-tofacitinib citrate (0.8 mg/Kg), Group 4-tofacitinib citrate (0.08 mg/Kg), Group 5-MJ04 (0.08 mg/Kg), Group 6-MJ04 (0.04 mg/Kg), Group 7-MJ04 (0.016 mg/Kg), Group 8-baricitinib (0.1 mg/Kg), Group 9-baricitinib (0.04 mg/Kg), and Group 10-baricitinib (0.02 mg/Kg). At the end of the experiment, skin samples were collected and preserved in 10% neutral buffered formalin for tissue sectioning and staining using haematoxylin and eosin (H&E). The histopathological examinations were performed under the 10× and 40× objectives of light microscope (Magnus, Mx21i), and hair follicles were graded on a scale of 0 to 4 (++++).
The skin samples collected from athymic nude mice (NU/J Foxn1^nu) were preserved in 10% neutral buffered formalin and processed for tissue sectioning. The skin sections (10 µm) of nude mice were stained using haematoxylin and eosin (H&E) and viewed under 10× and 40× objectives of the light microscope (Magnus, Mx21i). The histopathological examination of the samples was performed, and the hair follicles in the skin sections were graded on a scale of 0 to 4 (++++).

DHT-induced AGA mice = assay: Hair regrowth in DHT-induced AGA mice model (topical, 28 days); assay type: in vivo, C57BL/6J mice
Method: (§1) C57BL/6 J mice (male) were obtained from CSIR-IIIM Animal House at 7 weeks of age. We used a DHT-induced AGA mice model for this study. […] At the end of the experiment, skin samples were collected and preserved in 10% neutral buffered formalin for tissue sectioning and staining using haematoxylin and eosin (H&E). The histopathological examinations were performed under the 10× and 40× objectives of light microscope (Magnus, Mx21i).
Dorsal skin samples from C57BL/6J mice were shaved and collected for histological and molecular analyses on Days 7, 14, 21, and 28. The full-thickness skin tissue was fixed in a 10% neutral buffered formalin solution (Sigma) overnight and subsequently dehydrated for embedding in paraffin. Haematoxylin and eosin (H&E) staining was performed on the skin tissue, and digital photomicrographs were taken from the representative areas using light microscope (Magnus, Mx21i).
The quantification of anagen initiation was assessed by observing changes in the dorsal skin colour of C57BL/6 mice, a phenomenon closely linked to the onset of the anagen phase. Anagen quantification was done by employing threshold analysis on dorsal skin colouration using ImageJ. The darkening of the skin, attributed to melanogenesis, strongly correlates with the progression of anagen. This analysis is visually depicted as a heatmap using GraphPad Prism 9.5 Software.

[2] = Body weight of athymic nude mice during topical treatment; assay type: in vivo, athymic nude mice (NU/J Foxn1nu); details: individual mice
Method: . The groups are as follows: Group 1-Control (untreated), Group 2-Vehicle control, Group 3-tofacitinib citrate (0.8 mg/Kg), Group 4-tofacitinib citrate (0.08 mg/Kg), Group 5-MJ04 (0.08 mg/Kg), Group 6-MJ04 (0.04 mg/Kg), Group 7-MJ04 (0.016 mg/Kg), Group 8-baricitinib (0.1 mg/Kg), Group 9-baricitinib (0.04 mg/Kg), and Group 10-baricitinib (0.02 mg/Kg). At the end of the experiment, skin samples were collected and preserved in 10% neutral buffered formalin for tissue sectioning and staining using haematoxylin and eosin (H&E). […]

[3] = Body weight, biochemical and haematological parameters in DHT-induced AGA mice (0.5% testosterone then topical treatment); assay type: in vivo, C57BL/6J mice; details: for LYMPH: unit assumed
Method: The experiments were performed on C57BL/6 J and Athymic nude mice (NU/J Foxn1^nu) of 6–7 weeks of age obtained from Animal House Facility, CSIR-Indian Institute of Integrative Medicine (IIIM), Jammu, India. […] The animals were provided with ad libitum feed (standard pellet diet) and autoclaved RO water throughout the study. The body weight of mice was measured after seven days before treatment.
as §1
Every two weeks during the experimental period, mice were anesthetized, and the blood samples were collected into tubes containing heparin sodium to detect the total and differential white blood cells, haemoglobin, red blood cell, platelet count, mean corpuscular haemoglobin, mean corpuscular volume, red blood cell volume, mean platelet volume, and analyzed using an automated haematology analyzer (Model: XT1800i; Make: Sysmex).
Every two weeks during the experimental period, mice and rats were anesthetized, and blood samples were collected into non-heparinized tubes and then centrifuged at 1000 rpm at 4 °C for 10 min to obtain the serum. The biochemical parameters, including total protein, aspartate aminotransferase, alanine aminotransferase, total protein, albumin, total bilirubin, direct bilirubin, glucose, total cholesterol, triglyceride, low-density lipoprotein, high-density lipoprotein, creatinine, and uric acid, were measured using an automatic biochemical analyzer (Model: EM360; Make: Erba Mannheim).

With `C[C@@H]1CCN(C(=O)CC#N)C[C@@H]1N(C)c1ncnc2[nH]ccc12` [Tofacitinib, tofacitinib citrate, reference compound] the “H&E skin histopathology finding” value ([1]; 0.08 mg/kg) was “Mild epidermal thickening with the increased number of hair follicles”, the hair follicle grade ([1]; 0.08 mg/kg) was “++++ (graded on a scale ranging from 0 to 4 (++++))” and the “H&E skin histopathology finding” value ([1]; 0.8 mg/kg) was “Mild epidermal thickening with the increased number of hair follicles”. For the same compound, the hair follicle grade ([1]; 0.8 mg/kg) was “++++ (graded on a scale ranging from 0 to 4 (++++))”, the “early onset of hair” value ([1]; topical) was 12 days and the “H&E skin histopathology finding” value (DHT-induced AGA mice; 0.08mg/kg, Days 7, 14, 21, 28) was “Minimal epidermal thinning with few hair follicles on Days 7 and 14 and increased hair follicles on Days 21 and 28”. The “hair follicle phase (histopathology)” value (DHT-induced AGA mice; skin samples days 7, 14, 21, 28) was “at least in the anagen IIIc-IV phase”, the “entry into the anagen phase” value (DHT-induced AGA mice; topical once a day in presence of testosterone) was “rapid entry into the anagen phase within seven days of treatment” and the “mice displaying intense skin darkening followed by hair growth” value (DHT-induced AGA mice; within 10 days of treatment) was “around 90%”. The “Weight of nude mice (NU/J Foxn1nu)” value ([2]; 0.8 mg/kg (first group), DAY 1) was 18.1 and 18.4 and 18.7 and 19.3 and 18.2, the “Weight of nude mice (NU/J Foxn1nu)” value ([2]; 0.8 mg/kg (first group), DAY 7) was 20.1 and 20.5 (2×) and 19.3 and 19.8 and the “Weight of nude mice (NU/J Foxn1nu)” value ([2]; 0.8 mg/kg (first group), DAY 14) was 21.8 and 22.3 and 22.4 and 21.1 and 21.4. The “Weight of nude mice (NU/J Foxn1nu)” value ([2]; 0.8 mg/kg (first group), DAY 21) was 23.7 and 23.9 and 24.1 and 23.1 and 23.3, the “Weight of nude mice (NU/J Foxn1nu)” value ([2]; 0.8 mg/kg (first group), DAY 28) was 24.6 and 25.3 and 25.4 and 26.1 and 24.5 and the “Weight of nude mice (NU/J Foxn1nu)” value ([2]; 0.8 mg/kg (second group so printed), DAY 1) was 18.4 and 18.5 (2×) and 18.9 and 19.3. For the same compound, the “Weight of nude mice (NU/J Foxn1nu)” value ([2]; 0.8 mg/kg (second group so printed), DAY 7) was 19.3 and 19.5 (2×) and 20.6 and 20.7, the “Weight of nude mice (NU/J Foxn1nu)” value ([2]; 0.8 mg/kg (second group so printed), DAY 14) was 21.1 and 21.4 and 21.3 and 21.8 and 22.1 and the “Weight of nude mice (NU/J Foxn1nu)” value ([2]; 0.8 mg/kg (second group so printed), DAY 21) was 22.6 and 22.9 and 23.4 (2×) and 23.8. For the same compound, the “Weight of nude mice (NU/J Foxn1nu)” value ([2]; 0.8 mg/kg (second group so printed), DAY 28) was 24.8 and 25.1 and 25.3 and 25.4 and 26.1, the ALP ([3]; Day 21, 0.08 mg/Kg) was 198 U/L and the ALT/SGPT ([3]; Day 21, 0.08 mg/Kg) was 82 U/L. The AST/SGOT ([3]; Day 21, 0.08 mg/Kg) was 80 U/L, the Cholesterol ([3]; Day 21, 0.08 mg/Kg) was 216 mg/dL and the Creatine ([3]; Day 21, 0.08 mg/Kg) was 0.49 mg/dL. The HCT ([3]; Day 21, 0.08 mg/Kg) was 45%, the HDL ([3]; Day 21, 0.08 mg/Kg) was 110 mg/dL and the LDL ([3]; Day 21, 0.08 mg/Kg) was 134 mg/dL. For the same compound, the MCHC ([3]; Day 21, 0.08 mg/Kg) was 28 g/dL, the MCV ([3]; Day 21, 0.08 mg/Kg) was 51 fL and the NEUT ([3]; Day 21, 0.08 mg/Kg) was 20.2%. The PLT ([3]; Day 21, 0.08 mg/Kg) was 587 103/μl, the RBC ([3]; Day 21, 0.08 mg/Kg) was 9.2 1012/l and the Total protein ([3]; Day 21, 0.08 mg/Kg) was 5.0 g/dL. The Triglyceride ([3]; Day 21, 0.08 mg/Kg) was 141 mg/dL, the Urea ([3]; Day 21, 0.08 mg/Kg) was 49 mg/dL and the WBC ([3]; Day 21, 0.08 mg/Kg) was 3.0 103/μl. The LYMPH ([3]; Day 21, 0.08 mg/Kg) was 78.8%, the ALP ([3]; Day 21, 0.8 mg/Kg) was 132 U/L and the ALT/SGPT ([3]; Day 21, 0.8 mg/Kg) was 56 U/L. For the same compound, the AST/SGOT ([3]; Day 21, 0.8 mg/Kg) was 111 U/L, the Cholesterol ([3]; Day 21, 0.8 mg/Kg) was 211 mg/dL and the Creatine ([3]; Day 21, 0.8 mg/Kg) was 0.63 mg/dL. The HCT ([3]; Day 21, 0.8 mg/Kg) was 42%, the HDL ([3]; Day 21, 0.8 mg/Kg) was 116 mg/dL and the LDL ([3]; Day 21, 0.8 mg/Kg) was 126 mg/dL. For the same compound, the MCHC ([3]; Day 21, 0.8 mg/Kg) was 29 g/dL, the MCV ([3]; Day 21, 0.8 mg/Kg) was 52 fL and the NEUT ([3]; Day 21, 0.8 mg/Kg) was 21.5%. For the same compound, the PLT ([3]; Day 21, 0.8 mg/Kg) was 917 103/μl, the RBC ([3]; Day 21, 0.8 mg/Kg) was 8.1 1012/l and the Total protein ([3]; Day 21, 0.8 mg/Kg) was 5.2 g/dL. The Triglyceride ([3]; Day 21, 0.8 mg/Kg) was 118 mg/dL, the Urea ([3]; Day 21, 0.8 mg/Kg) was 71 mg/dL and the WBC ([3]; Day 21, 0.8 mg/Kg) was 1.7 103/μl. For the same compound, the LYMPH ([3]; Day 21, 0.8 mg/Kg) was 77.9%, the ALP ([3]; Day 28, 0.08 mg/Kg) was 199 U/L and the ALT/SGPT ([3]; Day 28, 0.08 mg/Kg) was 177 U/L. For the same compound, the AST/SGOT ([3]; Day 28, 0.08 mg/Kg) was 136 U/L, the Cholesterol ([3]; Day 28, 0.08 mg/Kg) was 238 mg/dL and the Creatine ([3]; Day 28, 0.08 mg/Kg) was 0.13 mg/dL. It also gave an HCT ([3]; Day 28, 0.08 mg/Kg) of 47.0%, an HDL ([3]; Day 28, 0.08 mg/Kg) of 133 mg/dL and an HGB ([3]; Day 28, 0.08 mg/Kg) of 14 g/dL. For the same compound, the LDL ([3]; Day 28, 0.08 mg/Kg) was 111 mg/dL, the MCHC ([3]; Day 28, 0.08 mg/Kg) was 29.0 g/dL and the MCV ([3]; Day 28, 0.08 mg/Kg) was 58.0 fL. The PLT ([3]; Day 28, 0.08 mg/Kg) was 1475 103/μl, the RBC ([3]; Day 28, 0.08 mg/Kg) was 8.1 106/μl and the Total protein ([3]; Day 28, 0.08 mg/Kg) was 6.5 g/dL. The Triglyceride ([3]; Day 28, 0.08 mg/Kg) was 135 mg/dL, the Urea ([3]; Day 28, 0.08 mg/Kg) was 62 mg/dL and the WBC ([3]; Day 28, 0.08 mg/Kg) was 6.7 103/μl. It also gave an ALP ([3]; Day 28, 0.8 mg/Kg) of 252 U/L, an ALT/SGPT ([3]; Day 28, 0.8 mg/Kg) of 134 U/L and an AST/SGOT ([3]; Day 28, 0.8 mg/Kg) of 125 U/L. It also gave a Cholesterol ([3]; Day 28, 0.8 mg/Kg) of 240 mg/dL, a Creatine ([3]; Day 28, 0.8 mg/Kg) of 0.12 mg/dL and an HCT ([3]; Day 28, 0.8 mg/Kg) of 31.0%. The HDL ([3]; Day 28, 0.8 mg/Kg) was 128 mg/dL, the HGB ([3]; Day 28, 0.8 mg/Kg) was 11 g/dL and the LDL ([3]; Day 28, 0.8 mg/Kg) was 113 mg/dL. For the same compound, the MCHC ([3]; Day 28, 0.8 mg/Kg) was 34.0 g/dL, the MCV ([3]; Day 28, 0.8 mg/Kg) was 60.0 fL and the PLT ([3]; Day 28, 0.8 mg/Kg) was 1053 103/μl. For the same compound, the RBC ([3]; Day 28, 0.8 mg/Kg) was 5.1 106/μl, the Total protein ([3]; Day 28, 0.8 mg/Kg) was 6.1 g/dL and the Triglyceride ([3]; Day 28, 0.8 mg/Kg) was 132 mg/dL. For the same compound, the Urea ([3]; Day 28, 0.8 mg/Kg) was 50 mg/dL and the WBC ([3]; Day 28, 0.8 mg/Kg) was 5.6 103/μl.
